{"source": "patent US20080187508A1", "about": "“Treatment of Golmerular Basement Membrane Disease Involving Matrix Metalloproteinase-12” (BOYS TOWN NATIONAL RESEARCH HOSPITAL, priority 2004, published 2008)", "key": {"wide range of MMPs": {"system": "wide range of MMPs", "conditions": "in vitro; cited from earlier work"}, "Alport mice [1]": {"system": "Alport mice", "test": "immunofluorescence of kidney cryosections (fibronectin, collagen IV α1/α2) of treated Alport mice", "assay_type": "in vivo, mouse", "conditions": "Alport mice treated from 4 to 7 weeks of age, MMI-270 50 μg/g I.P., BAY 129566 4 mg once daily oral gavage, fibronectin and collagen IV α1/α2 immunostaining", "protocol": "The Alport mouse model has been described (Cosgrove et al. (1996) Genes Dev. 10, 2981-2992). The control mice used were normal for both collagen α3(IV) alleles, and are a product of double heterozygote crosses for the Alport mutation. The use of animals in this study was performed in accordance with an approved institutional IACUC protocol. Extreme care was taken to minimize pain and discomfort suffered by the mice. MMP inhibitors were administered between 4 and 7 weeks of age. All drugs were freshly prepared prior to administration. BAY 129566 was emulsified in suspension with 0.5% carboxymethyl cellulose and 4 mg given once a day by oral gavage. MMI-270 was solubilized in 0.9% saline and administered by I.P. injection (50 μg/g body weight) once a day.\nCryosections ([…]) of kidneys from 7-week-old normal and Alport mice were air dried, fixed by immersion in ice cold acetone, and subjected to immunohistochemical staining analysis using antibodies specific for MMP-3 (rabbit polyclonal anti-human MMP-3, a gift from Dr. Z. Gunza-Smith, Miami, Fla., used at 1:200 dilution), MMP-12 (rabbit polyclonal antibody against mouse MMP-12, kindly provided by Yoshikatsu Kaneko, used at 1:100 dilution), type IV collagen α1/2 chains (rabbit polyclonal against mouse type IV collagen, Biodesign, Inc., Saco, Me., used at 1:200 dilution), fibronectin (rabbit polyclonal against human plasma fibronectin, Sigma Chemical Co., St. Louis, Mo., used at 1:200). Anti-CD31 antibodies were directly conjugated to Alexa 568 (Molecular Probes, Eugene Oreg.) and purchased from Immunotech (Marseille, France). […] Images were collected using a Cytovision Ultra Image analysis system interfaced with an Olympus BH-2 fluorescence microscope.\nTo assess the effect of these two compounds on Alport renal disease progression, Alport mice were administered either MMI 270 or BAY 129566 from 4 to 7 weeks of age. […] Cryosections were analyzed by immunofluorescence microscopy to assess for the degree of glomerular and tubulointerstitial damage using antibodies specific for collagen IV α1 and α2 chains, and fibronectin."}, "MMP-3": {"molecular_target": "MMP-3 (Homo sapiens, UniProt P08254)", "sequence (P08254 100-477, species assumed)": "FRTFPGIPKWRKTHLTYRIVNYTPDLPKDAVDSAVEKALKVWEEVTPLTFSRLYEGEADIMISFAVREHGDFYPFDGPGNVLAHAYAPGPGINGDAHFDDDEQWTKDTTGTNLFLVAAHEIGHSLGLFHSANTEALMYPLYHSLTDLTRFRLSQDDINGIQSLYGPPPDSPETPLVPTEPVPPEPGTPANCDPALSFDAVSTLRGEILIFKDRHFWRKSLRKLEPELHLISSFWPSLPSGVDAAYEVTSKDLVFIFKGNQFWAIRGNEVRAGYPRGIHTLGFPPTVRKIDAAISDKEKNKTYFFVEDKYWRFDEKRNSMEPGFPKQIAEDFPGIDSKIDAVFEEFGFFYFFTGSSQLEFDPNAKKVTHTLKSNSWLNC", "conditions": "hydrochloride monohydrate; cited from earlier work"}, "MMP-2": {"molecular_target": "T1, MMP-2 (Homo sapiens, UniProt P08253)", "T1 sequence (P08253 110-660)": "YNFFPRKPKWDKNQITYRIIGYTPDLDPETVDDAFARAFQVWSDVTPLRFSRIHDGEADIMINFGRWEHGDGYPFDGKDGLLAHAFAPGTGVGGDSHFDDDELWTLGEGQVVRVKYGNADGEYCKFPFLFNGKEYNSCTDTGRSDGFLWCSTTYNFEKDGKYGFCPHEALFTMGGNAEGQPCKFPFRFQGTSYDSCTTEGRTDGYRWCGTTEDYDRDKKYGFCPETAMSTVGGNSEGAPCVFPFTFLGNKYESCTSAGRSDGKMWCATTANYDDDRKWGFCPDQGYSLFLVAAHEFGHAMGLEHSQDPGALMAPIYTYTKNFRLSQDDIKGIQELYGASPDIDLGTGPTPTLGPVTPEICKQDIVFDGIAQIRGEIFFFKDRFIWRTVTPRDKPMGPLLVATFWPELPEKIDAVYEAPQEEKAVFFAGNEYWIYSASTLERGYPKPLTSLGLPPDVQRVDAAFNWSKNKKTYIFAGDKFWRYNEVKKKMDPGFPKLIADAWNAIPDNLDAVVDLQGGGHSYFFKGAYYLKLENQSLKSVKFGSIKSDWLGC", "conditions": "hydrochloride monohydrate; cited from earlier work"}, "Alport mice [2]": {"system": "Alport mice", "test": "transmission electron microscopy of glomerular basement membrane of treated Alport mice", "assay_type": "in vivo, mouse", "conditions": "Alport mice treated with MMP inhibitor from 4 to 7 weeks of age, electron microscopy", "protocol": "The Alport mouse model has been described (Cosgrove et al. (1996) Genes Dev. 10, 2981-2992). The control mice used were normal for both collagen α3(IV) alleles, and are a product of double heterozygote crosses for the Alport mutation. The use of animals in this study was performed in accordance with an approved institutional IACUC protocol. Extreme care was taken to minimize pain and discomfort suffered by the mice. MMP inhibitors were administered between 4 and 7 weeks of age. All drugs were freshly prepared prior to administration. BAY 129566 was emulsified in suspension with 0.5% carboxymethyl cellulose and 4 mg given once a day by oral gavage. MMI-270 was solubilized in 0.9% saline and administered by I.P. injection (50 μg/g body weight) once a day. Transmission electron microscopy was performed as previously described (Cosgrove et al., 1996, Genes Dev. 10, 2981-2992). Ultrastructural localization studies of type IV collagen were performed essentially as previously described (Bhattacharya et al., 2002). Kidneys from 7-week-old control and Alport mice were fixed by heart perfusion with 2% paraformaldehyde in PBS, and post-fixed in this same solution overnight. Ultrathin (70 nm) sections were reacted for 4 hours at room temperature with goat anti-collagen IV antibodies (Southern Biotechnology, Birmingham, Ala.). After six 10 minute washes in PBS, specimen were reacted for 2 hours at room temperature with 10 nanometers (nm) gold-conjugated anti-rabbit antibodies (Vector Laboratories, Burlingame, Calif.). Grids were washed as before, air-dried, counterstained with uranyl acetate, and examined using transmission electron microscopy. Propagermanium (3-oxygemylpropinic acid polymer, Sanwa Kagaku Kenkyusho Co., Nagoya, Japan) was administered orally (10 milligrams per kilogram (mg/kg) in 1% gelatin) by gavage once daily starting at 5 weeks of age, and kidneys harvested at 7 weeks of age. Three animals per group, Alport mice and control litter mates, gavaged with drug or vehicle only, were analyzed. […] Proteolytic degradation of the GBM in Alport syndrome might underlie the progressive irregular GBM damage and podocyte foot process effacement. Type IV collagen from Alport kidneys is more susceptible to proteolytic degradation in vitro than type IV collagen from healthy kidneys (Kalluri et al. (1997) J. Clin. Invest. 99, 2470-2478, presumably owing to the reduced number of interchain disulfide crosslinks (Gunwar et al. (1998) J. Biol. Chem. 273, 8767-8775)."}, "[3]": {"conditions": "listed as NMI 270, hydrochloride monohydrate"}}, "note": "“Also recorded” adds a separate entry of the source. Structures can show the parent of a compound that is named as a salt."}
{"smiles": "COc1ccc(S(=O)(=O)N(Cc2cccnc2)[C@@H](C(=O)NO)C(C)C)cc1", "note": "[MMI 270, N-hydroxy-2(R)-[(4-methoxysulfonyl)(3-picolyl)amino]-3-methylbutaneamide hydrochloride monohydrate]", "values": [{"measurement": "concentrations inhibiting activity of a wide range of MMPs", "setting": "wide range of MMPs", "result": "nM concentrations"}, {"measurement": "glomerular and tubulointerstitial (renal) disease progression", "setting": "Alport mice [1]; hydrochloride monohydrate", "result": "very little glomerular or interstitial disease; also recorded: remarkable improvement"}, {"measurement": "glomerular and tubulointerstitial (renal) disease progression", "setting": "Alport mice [1]; [3]", "result": "significantly reduced interstitial disease"}, {"measurement": "MMP inhibitory effect, MMP-3", "setting": "MMP-3", "result": "inhibits"}, {"measurement": "MMP inhibitory effect, MMP-2", "setting": "MMP-2", "result": "inhibits"}, {"measurement": "glomerular basement membrane architecture", "setting": "Alport mice [2]; hydrochloride monohydrate", "result": "near complete restoration of normal glomerular basement membrane architecture; also recorded: prevents or reverses GBM damage"}, {"measurement": "glomerular basement membrane architecture", "setting": "Alport mice [2]; listed as MMI-270, hydrochloride monohydrate", "result": "largely restored GBM ultrastructure and function; also recorded: markedly improved glomerular basement membrane architecture"}, {"measurement": "glomerular basement membrane architecture", "setting": "Alport mice [2]; [3]", "result": "markedly improved GBM ultrastructure"}]}
